Experimental data taken from ChEMBL document CHEMBL5465560, “Selectivity Literature for EUbOPEN Chemogenomic Library” (2024).
Each block holds one compound with its values, some of them ahead of it.

How the values were obtained:
[1] = target: Tyrosine-protein kinase ABL2 (Homo sapiens, UniProt P42684); assay: Selectivity interaction (Kinase panel (Z-LYTE Assay)) EUB0001632a ABL2; settings: at 10 µM
[2] = target: Muscarinic acetylcholine receptor M2 (Homo sapiens, UniProt P08172); assay: Selectivity interaction (Muscarinic M2 Calcium flux assay, agonist and antagonist mode ) EUB0000877a CHRM2
[3] = target: Ribosomal protein S6 kinase alpha-1 (Homo sapiens, UniProt Q15418); assay: Selectivity interaction (ActivX KiNativ screen (kinase selectivity in THP-1 cell lysates)) EUB0000639a RPS6KA1; type: subcellular; settings: lysate
[4] = target: Cannabinoid receptor 2 (Homo sapiens) (UniProt P34972); assay: Selectivity interaction (Panel of non-epigenetic targets (kinases, GPCRs, ion channels, and transporters, Eurofins) ) EUB0000271b CNR2; settings: at 1 µM
[5] = target: T1, Rhodopsin kinase GRK7 (Homo sapiens) (UniProt Q8WTQ7); assay: Selectivity interaction (KinomeScan (DiscoverX)) EUB0000595a GRK7; settings: at 10 µM
T1 sequence (whole entry): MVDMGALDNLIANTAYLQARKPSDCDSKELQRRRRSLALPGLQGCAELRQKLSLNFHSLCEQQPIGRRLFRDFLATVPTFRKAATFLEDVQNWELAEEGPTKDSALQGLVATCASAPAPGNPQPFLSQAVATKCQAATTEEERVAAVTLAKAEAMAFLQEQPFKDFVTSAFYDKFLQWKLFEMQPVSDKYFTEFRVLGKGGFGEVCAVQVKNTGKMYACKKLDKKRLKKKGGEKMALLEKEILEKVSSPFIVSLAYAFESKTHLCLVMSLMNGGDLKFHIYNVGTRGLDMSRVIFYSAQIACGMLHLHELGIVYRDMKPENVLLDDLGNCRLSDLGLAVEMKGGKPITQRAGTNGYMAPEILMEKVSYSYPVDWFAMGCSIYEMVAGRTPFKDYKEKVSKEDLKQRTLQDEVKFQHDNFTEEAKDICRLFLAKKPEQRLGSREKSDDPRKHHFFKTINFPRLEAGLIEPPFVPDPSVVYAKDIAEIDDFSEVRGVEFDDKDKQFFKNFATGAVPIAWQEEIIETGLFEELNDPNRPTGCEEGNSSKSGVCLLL

[6] = target: T2, Phosphatidylinositol 4,5-bisphosphate 3-kinase catalytic subunit delta isoform (Homo sapiens) (UniProt O00329); assay: Selectivity interaction (KinomeScan (DiscoverX)) EUB0001049a PIK3CD; settings: at 1 µM
T2 sequence (whole entry): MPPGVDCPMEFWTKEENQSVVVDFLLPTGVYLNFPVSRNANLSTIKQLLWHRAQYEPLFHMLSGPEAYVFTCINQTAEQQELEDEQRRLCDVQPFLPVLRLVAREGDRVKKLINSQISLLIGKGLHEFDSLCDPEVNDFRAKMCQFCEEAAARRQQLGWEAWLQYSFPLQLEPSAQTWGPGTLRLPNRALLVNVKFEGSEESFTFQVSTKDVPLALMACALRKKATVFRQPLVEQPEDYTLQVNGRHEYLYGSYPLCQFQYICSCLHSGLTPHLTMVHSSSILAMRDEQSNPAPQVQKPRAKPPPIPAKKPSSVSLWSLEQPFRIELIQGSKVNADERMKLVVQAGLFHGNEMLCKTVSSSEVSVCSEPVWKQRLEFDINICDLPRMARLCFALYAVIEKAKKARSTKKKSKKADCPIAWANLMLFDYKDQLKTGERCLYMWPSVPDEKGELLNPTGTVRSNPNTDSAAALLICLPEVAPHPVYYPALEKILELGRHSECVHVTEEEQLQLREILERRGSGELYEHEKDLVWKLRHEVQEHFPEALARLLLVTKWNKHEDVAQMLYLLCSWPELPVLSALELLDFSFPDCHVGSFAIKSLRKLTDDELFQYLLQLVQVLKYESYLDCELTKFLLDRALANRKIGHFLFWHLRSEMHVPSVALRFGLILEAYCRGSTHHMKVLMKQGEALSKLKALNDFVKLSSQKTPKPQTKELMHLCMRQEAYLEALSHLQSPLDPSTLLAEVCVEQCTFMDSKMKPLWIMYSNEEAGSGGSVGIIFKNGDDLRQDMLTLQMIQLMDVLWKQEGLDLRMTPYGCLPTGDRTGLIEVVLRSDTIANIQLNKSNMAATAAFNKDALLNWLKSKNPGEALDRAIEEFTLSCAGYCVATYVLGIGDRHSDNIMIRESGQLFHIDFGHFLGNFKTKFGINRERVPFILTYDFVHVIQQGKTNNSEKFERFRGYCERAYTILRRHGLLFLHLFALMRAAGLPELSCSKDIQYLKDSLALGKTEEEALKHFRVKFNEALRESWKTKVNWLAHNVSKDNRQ

[7] = target: Casein kinase I isoform delta (Homo sapiens, UniProt P48730); assay: Selectivity interaction (KinomeScan (DiscoverX)) EUB0001049a CSNK1D; settings: at 1 µM
[8] = target: Cyclin-dependent kinase 13 (Homo sapiens, UniProt Q14004); assay: Selectivity interaction (KinomeScan (DiscoverX)) EUB0000045b CDK13
[9] = target: 5'-AMP-activated protein kinase catalytic subunit alpha-1 (Homo sapiens, UniProt Q13131); assay: Selectivity interaction (ActivX KiNativ screen (ex vivo kinase selectivity in human PBMCs)) EUB0001619a PRKAA1; type: cell-based; settings: PBMC, at 1 µM
[10] = target: T3, Mitogen-activated protein kinase kinase kinase 2 (Homo sapiens) (UniProt Q9Y2U5); assay: Selectivity interaction (KinomeScan (DiscoverX)) EUB0001619a MAP3K2; settings: at 1 µM
T3 sequence (whole entry): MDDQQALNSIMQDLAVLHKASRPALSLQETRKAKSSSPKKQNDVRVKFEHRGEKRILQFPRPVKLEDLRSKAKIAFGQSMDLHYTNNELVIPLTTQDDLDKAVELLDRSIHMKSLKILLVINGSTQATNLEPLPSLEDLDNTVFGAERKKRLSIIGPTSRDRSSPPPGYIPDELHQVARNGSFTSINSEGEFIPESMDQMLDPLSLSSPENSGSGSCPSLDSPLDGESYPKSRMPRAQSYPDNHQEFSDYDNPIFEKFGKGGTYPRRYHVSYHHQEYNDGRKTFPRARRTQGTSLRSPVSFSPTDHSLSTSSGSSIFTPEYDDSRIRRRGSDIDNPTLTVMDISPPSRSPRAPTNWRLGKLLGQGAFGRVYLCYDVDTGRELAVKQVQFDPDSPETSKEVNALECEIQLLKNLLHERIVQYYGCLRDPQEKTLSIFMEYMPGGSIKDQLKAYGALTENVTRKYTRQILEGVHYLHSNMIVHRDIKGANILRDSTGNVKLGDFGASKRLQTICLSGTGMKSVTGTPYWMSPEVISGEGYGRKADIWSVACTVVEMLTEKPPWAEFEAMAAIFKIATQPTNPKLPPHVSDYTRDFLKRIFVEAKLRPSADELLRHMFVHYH

Chain of Ribosomal protein S6 kinase alpha-1 (Q15418 whole entry): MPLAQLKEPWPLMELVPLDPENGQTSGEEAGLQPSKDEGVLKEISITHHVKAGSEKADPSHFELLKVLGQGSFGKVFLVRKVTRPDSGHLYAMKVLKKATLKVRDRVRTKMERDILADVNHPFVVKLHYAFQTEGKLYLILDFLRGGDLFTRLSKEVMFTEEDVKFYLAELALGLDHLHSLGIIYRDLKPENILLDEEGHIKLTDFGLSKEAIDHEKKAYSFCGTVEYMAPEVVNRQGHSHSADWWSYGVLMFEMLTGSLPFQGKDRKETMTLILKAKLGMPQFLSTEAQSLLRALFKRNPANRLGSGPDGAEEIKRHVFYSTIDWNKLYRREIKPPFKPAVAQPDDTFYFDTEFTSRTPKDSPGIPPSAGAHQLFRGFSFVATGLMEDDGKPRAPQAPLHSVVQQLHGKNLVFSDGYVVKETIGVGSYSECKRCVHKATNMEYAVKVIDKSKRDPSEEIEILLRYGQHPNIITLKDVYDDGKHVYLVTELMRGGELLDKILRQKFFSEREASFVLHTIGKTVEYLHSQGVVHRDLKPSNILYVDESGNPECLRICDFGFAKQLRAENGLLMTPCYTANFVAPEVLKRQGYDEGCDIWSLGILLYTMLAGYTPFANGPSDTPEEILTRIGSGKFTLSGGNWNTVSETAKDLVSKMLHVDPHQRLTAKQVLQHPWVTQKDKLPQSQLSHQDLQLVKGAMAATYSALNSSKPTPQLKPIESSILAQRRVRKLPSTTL
Chain of Cyclin-dependent kinase 13 (Q14004 whole entry, looked up): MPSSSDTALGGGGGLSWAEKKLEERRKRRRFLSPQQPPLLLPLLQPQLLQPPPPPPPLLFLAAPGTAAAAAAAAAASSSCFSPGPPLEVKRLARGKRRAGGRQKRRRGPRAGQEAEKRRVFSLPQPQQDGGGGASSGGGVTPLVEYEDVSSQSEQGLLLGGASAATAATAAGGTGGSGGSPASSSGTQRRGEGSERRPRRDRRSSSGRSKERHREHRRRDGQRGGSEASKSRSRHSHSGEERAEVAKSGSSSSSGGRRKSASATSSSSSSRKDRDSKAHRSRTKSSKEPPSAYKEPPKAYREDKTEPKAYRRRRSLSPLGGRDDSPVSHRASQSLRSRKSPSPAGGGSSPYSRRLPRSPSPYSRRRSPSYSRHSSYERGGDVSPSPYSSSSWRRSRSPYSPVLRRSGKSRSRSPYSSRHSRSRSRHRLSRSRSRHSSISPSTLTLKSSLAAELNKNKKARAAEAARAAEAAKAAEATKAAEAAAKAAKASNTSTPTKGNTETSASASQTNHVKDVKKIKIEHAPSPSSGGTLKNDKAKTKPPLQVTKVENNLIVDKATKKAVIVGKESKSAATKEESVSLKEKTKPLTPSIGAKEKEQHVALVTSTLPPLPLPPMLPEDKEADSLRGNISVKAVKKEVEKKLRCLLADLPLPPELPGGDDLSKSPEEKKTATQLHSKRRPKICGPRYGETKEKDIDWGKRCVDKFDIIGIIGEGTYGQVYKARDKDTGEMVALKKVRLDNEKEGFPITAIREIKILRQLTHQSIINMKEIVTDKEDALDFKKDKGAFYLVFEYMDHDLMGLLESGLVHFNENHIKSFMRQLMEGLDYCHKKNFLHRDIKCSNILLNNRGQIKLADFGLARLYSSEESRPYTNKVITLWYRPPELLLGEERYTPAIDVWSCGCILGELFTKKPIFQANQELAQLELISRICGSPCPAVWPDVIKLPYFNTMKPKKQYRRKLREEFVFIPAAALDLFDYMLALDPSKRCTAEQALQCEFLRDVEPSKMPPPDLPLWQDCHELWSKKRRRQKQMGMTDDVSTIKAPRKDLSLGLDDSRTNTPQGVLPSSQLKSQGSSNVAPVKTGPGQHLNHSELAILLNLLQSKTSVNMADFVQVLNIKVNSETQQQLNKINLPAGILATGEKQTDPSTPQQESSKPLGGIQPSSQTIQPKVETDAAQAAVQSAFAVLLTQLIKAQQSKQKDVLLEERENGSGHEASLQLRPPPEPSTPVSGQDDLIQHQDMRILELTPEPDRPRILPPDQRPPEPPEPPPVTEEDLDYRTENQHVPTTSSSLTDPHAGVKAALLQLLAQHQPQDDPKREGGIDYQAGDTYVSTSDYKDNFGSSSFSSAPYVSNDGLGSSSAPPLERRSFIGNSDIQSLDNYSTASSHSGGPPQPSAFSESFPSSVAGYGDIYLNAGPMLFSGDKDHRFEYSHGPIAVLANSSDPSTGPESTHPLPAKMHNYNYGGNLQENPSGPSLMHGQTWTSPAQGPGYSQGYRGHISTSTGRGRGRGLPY
Chain of Cannabinoid receptor 2 (Homo sapiens) (P34972 whole entry): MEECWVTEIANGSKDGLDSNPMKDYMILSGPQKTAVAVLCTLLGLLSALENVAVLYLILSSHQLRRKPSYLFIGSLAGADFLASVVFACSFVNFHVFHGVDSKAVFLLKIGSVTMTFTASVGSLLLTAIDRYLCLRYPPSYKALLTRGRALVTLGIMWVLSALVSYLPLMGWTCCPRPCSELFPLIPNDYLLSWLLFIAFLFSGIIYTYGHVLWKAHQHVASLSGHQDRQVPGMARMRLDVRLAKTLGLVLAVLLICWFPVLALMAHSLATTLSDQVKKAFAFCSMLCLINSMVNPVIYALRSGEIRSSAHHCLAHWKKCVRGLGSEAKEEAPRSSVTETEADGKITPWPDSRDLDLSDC
Chain of Muscarinic acetylcholine receptor M2 (P08172 whole entry): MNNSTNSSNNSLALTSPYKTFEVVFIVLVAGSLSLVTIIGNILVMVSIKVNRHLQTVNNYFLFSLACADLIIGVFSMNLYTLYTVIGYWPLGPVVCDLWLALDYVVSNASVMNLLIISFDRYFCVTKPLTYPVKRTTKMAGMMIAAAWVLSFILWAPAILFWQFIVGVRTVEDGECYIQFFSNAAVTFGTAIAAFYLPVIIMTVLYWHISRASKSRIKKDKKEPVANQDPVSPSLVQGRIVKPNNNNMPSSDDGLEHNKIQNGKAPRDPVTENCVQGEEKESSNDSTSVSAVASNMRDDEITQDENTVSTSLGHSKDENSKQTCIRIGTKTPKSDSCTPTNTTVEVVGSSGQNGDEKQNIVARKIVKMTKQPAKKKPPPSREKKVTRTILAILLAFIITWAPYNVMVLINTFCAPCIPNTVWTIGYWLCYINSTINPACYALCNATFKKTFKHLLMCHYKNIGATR
Chain of 5'-AMP-activated protein kinase catalytic subunit alpha-1 (Q13131 whole entry, looked up): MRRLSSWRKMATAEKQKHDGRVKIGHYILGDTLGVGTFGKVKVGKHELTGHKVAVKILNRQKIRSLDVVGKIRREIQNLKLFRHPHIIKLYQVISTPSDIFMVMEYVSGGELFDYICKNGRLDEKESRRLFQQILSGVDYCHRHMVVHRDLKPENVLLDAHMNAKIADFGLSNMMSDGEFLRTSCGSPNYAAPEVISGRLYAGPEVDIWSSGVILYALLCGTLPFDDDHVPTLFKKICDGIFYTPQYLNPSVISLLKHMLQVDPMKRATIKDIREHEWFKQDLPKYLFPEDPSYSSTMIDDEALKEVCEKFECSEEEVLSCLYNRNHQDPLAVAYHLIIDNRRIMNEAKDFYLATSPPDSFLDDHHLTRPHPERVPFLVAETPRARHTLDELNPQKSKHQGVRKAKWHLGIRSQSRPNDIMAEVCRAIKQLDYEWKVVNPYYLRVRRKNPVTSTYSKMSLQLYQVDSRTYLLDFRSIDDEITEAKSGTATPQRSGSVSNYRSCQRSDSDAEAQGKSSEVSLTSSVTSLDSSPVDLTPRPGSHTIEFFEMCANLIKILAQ
Chain of Tyrosine-protein kinase ABL2 (P42684 whole entry): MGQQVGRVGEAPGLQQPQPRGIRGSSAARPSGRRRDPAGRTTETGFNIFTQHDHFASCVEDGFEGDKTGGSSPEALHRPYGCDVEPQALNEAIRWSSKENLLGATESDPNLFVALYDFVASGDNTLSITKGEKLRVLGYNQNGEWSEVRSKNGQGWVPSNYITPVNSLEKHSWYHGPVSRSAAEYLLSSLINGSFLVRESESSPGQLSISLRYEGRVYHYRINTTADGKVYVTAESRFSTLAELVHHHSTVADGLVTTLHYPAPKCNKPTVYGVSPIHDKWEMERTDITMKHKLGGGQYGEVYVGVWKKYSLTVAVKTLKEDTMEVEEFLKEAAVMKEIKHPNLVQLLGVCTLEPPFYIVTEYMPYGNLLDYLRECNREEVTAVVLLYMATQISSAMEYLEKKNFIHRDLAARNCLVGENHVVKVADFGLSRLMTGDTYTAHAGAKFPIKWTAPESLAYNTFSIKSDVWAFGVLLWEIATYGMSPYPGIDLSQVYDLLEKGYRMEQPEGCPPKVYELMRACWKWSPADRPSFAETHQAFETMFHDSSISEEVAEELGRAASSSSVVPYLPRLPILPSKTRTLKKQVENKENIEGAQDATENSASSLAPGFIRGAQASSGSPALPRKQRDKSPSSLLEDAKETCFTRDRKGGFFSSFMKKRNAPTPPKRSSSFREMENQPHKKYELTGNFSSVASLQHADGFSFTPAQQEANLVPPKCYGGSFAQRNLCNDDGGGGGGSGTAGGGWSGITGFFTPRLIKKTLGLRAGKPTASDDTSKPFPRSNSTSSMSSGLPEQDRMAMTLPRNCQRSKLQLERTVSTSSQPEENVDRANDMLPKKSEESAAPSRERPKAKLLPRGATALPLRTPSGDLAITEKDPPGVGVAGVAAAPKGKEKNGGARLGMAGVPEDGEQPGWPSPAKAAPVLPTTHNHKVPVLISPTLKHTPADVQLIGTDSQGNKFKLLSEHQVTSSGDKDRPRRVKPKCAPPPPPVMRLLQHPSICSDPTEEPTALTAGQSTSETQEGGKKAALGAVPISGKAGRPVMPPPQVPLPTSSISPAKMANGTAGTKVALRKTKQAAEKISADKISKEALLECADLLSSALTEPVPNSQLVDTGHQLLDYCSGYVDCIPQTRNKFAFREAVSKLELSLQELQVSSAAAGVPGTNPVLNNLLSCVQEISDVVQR

- % of control [1]: 6.33%
SMILES: Cn1cc(-n2cnc3c(NCc4nc5cc(Cl)c(Cl)cc5[nH]4)nc(N4CCOCC4)nc32)cn1

- IC50 [2]: > 30 µM
SMILES: CCC(=O)N1CC[C@H](Nc2ncnc3c2CN(c2cnc(OC)c(C(F)(F)F)c2)CC3)C1 [LENIOLISIB]

- % of inhibition ([3]; at 0.01 µM): 18.6%
- % of inhibition ([3]; at 0.04 µM): 18%
- % of inhibition ([3]; at 0.2 µM): 14.6%
- % of inhibition ([3]; at 1 µM): 14.7%
- % of inhibition ([3]; at 5 µM): 7.3%
SMILES: CC[C@@H]1[C@H](F)C(=O)N[C@@H]1COc1nccc2cc(C(N)=O)c(OC)cc12 [ZIMLOVISERTIB]

SMILES: Cc1cc(C)cc([C@@H]2c3cc(C)ccc3NC(=O)CN2C(=O)c2ccc(Br)s2)c1
- % of inhibition [4]: -19%

SMILES: COCC(=O)NC/C=C/c1ccc2ncnc(Nc3ccc(Oc4ccc(C)nc4)c(C)c3)c2c1 [CP-724714]
- % of control [5]: 100%

SMILES: COc1cc(Nc2nc(C)cc(-c3cnn4nc(OC)ccc34)n2)cc(C(F)(F)F)c1
- % of control [6]: 88%
- % of control [7]: 90%

SMILES: C=CC(=O)Nc1cc(-n2c(=O)ccc3cnc4ccc(-c5ccc(NS(C)(=O)=O)cc5)cc4c32)ccc1C
- % of control ([8]; at 1 µM): 100%
- % of control ([8]; at 10 µM): 100%

SMILES: N#Cc1cccc(-c2c[nH]c3ncnc(N4CCOCC4)c23)c1
- % of inhibition [9]: 33%
- % of control [10]: 21%
